Results: patent publication US20110039824A1, “1,2,3,6-tetrahydroazepino[4,5-b]indole-5-carboxylate nuclear receptor inhibitors” (Wyeth, priority 2008, published 2011)

The molecules below were run against T1, Gal4/hFXR fusion protein (Homo sapiens, UniProt Q96RI1) (assay: Gal4/hFXR fusion protein agonist activity in human 293 cells (luciferase)). Conditions: Gal4/FXR agonist potency in 293 cells; table does not say whether hFXR or mFXR; read-out: Potency Range.
T1 sequence (Q96RI1 262-486 limits assumed): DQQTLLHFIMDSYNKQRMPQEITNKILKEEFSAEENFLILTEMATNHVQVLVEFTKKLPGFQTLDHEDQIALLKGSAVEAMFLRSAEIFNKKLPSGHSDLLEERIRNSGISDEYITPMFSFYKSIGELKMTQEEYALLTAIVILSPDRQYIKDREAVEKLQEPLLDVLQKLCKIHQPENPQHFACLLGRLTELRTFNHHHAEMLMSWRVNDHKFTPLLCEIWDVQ
Assay type: cell-based
Set-up: Potency Range; other: Gal4/FXR agonist potency in 293 cells
Experimental: • Assay Medium: Phenol red free high glucose Dulbecco's modified Eagle's medium with sodium pyruvate (Cellgro, #17-205-CV) supplemented with 10% fetal bovine serum (Gibco, 16000-044), 1% glutamax (Gibco, 35050-061), 100 units/mL penicillin and 100 μg/mL streptomycin (Gibco, 15140-122). • Culturplate-96 (PerkinElmer, 6005688) • Lysis buffer (Promega, E3971) • Luciferase assay reagent (Promega E1483)
• 1. Compounds to be tested were prepared as 2× stocks in assay medium. • 2. […] The supernatant was removed and the cells were resuspended in 1 ml assay medium. The cells were counted and diluted in assay medium to 200,000 cells per ml. The cells were then plated at 10,000 cells per well in Culturplate-96 plates in 50 uL assay medium. The cells were incubated at 37° C. for approximately 1 hour. • 3. […] All assays included 1 uM GW4064 (Maloney et al., J. Med. Chem., 2000, 43(16), 2971-2974) as a reference standard. • 4. Cells were incubated for 24 hours at 37° C.
• 5. The medium was removed, and the cells were lysed in 25 uL lysis buffer (Promega, E3971). • 6. The plates were analyzed for luciferase activity with luciferase assay reagent (Promega E1483). Plates were read on Victor^3V instrument using the protocol “Shuguang Luciferase assay” (dispense volume=100 uL, plate type=“Packard Viewplate”, measurement height=8 mm from bottom of plate, 5 second read per well).
• 1. For agonist single point screening, data were analyzed in Excel. Each compound was tested in triplicate. • 2. For agonist potency determinations, statistical analysis of the data was performed using a customized Excel/SAS program. Dose response curves were generated using a four parameter (min, max, slope, and EC50 where EC50 is defined as the concentration which corresponds to midway between the estimated max and min) logistic model using log-transformed data (data was transformed on both sides with known lambda=0). • 3.

Row | Structure (SMILES) | EC50
1 | CC(C)OC(=O)C1=CN(C(=O)c2cccc(CN3C[C@@H](C)O[C@H](C)C3)c2)CC(C)(C)c2c1[nH]c1ccccc21 [Example 5, Isopropyl 3-(3-{[(2R,6R)-2,6-dimethylmorpholin-4-yl]methyl}benzoyl)-1,1-dimethyl-1,2,3,6-tetrahydroazepino[4,5-b]indole-5-carboxylate] | 100 to 500 nM
2 | CC(C)OC(=O)C1=CN(C(=O)c2cccc(CN3C[C@@H](C)O[C@@H](C)C3)c2)CC(C)(C)c2c1[nH]c1ccccc21 [Example 6, Isopropyl 3-(3-{[(2R,6S)-2,6-dimethylmorpholin-4-yl]methyl}benzoyl)-1,1-dimethyl-1,2,3,6-tetrahydroazepino[4,5-b]indole-5-carboxylate] | 500 to 1000 nM
3 | CC(C)OC(=O)C1=CN(C(=O)c2cccc(CN3C[C@@H](C)N[C@@H](C)C3)c2)CC(C)(C)c2c1[nH]c1ccccc21 [Example 7, Isopropyl 3-(3-{[(3R,5S)-3,5-dimethylpiperazin-1-yl]methyl}benzoyl)-1,1-dimethyl-1,2,3,6-tetrahydroazepino[4,5-b]indole-5-carboxylate] | 500 to 1000 nM
4 | CC(C)OC(=O)C1=CN(C(=O)c2cccc(CN3CCC(C(N)=O)CC3)c2)CC(C)(C)c2c1[nH]c1ccccc21 [Example 8, Isopropyl 3-{3-[(4-carbamoylpiperidin-1-yl)methyl]benzoyl}-1,1-dimethyl-1,2,3,6-tetrahydroazepino[4,5-b]indole-5-carboxylate] | 500 to 1000 nM
5 | CC(C)OC(=O)C1=CN(C(=O)c2cccc(CN3CCC(N4CCOCC4)CC3)c2)CC(C)(C)c2c1[nH]c1ccccc21 [Example 9, Isopropyl 1,1-dimethyl-3-{3-[(4-morpholin-4-ylpiperidin-1-yl)methyl]benzoyl}-1,2,3,6-tetrahydroazepino[4,5-b]indole-5-carboxylate] | 1000 to 10000 nM
6 | CC(C)OC(=O)C1=CN(C(=O)c2cccc(CN3CCSC3)c2)CC(C)(C)c2c1[nH]c1ccccc21 [Example 10, Isopropyl 1,1-dimethyl-3-[3-(1,3-thiazolidin-3-ylmethyl)benzoyl]-1,2,3,6-tetrahydroazepino[4,5-b]indole-5-carboxylate] | 100 to 500 nM
7 | CC(C)OC(=O)C1=CN(C(=O)c2cccc(CN3CCC(N4CCCCC4)CC3)c2)CC(C)(C)c2c1[nH]c1ccccc21 [Example 11, Isopropyl 3-[3-(1,4′-bipiperidin-1′-ylmethyl)benzoyl]-1,1-dimethyl-1,2,3,6-tetrahydroazepino[4,5-b]indole-5-carboxylate] | 1000 to 10000 nM

Results, then the molecule that gave them:

Row | EC50 | Structure (SMILES)
8 | 1000 to 10000 nM | CC(C)OC(=O)C1=CN(C(=O)c2cccc(CN3CCC(N4CCCC4)CC3)c2)CC(C)(C)c2c1[nH]c1ccccc21 [Example 12, Isopropyl 1,1-dimethyl-3-{3-[(4-pyrrolidin-1-ylpiperidin-1-yl)methyl]benzoyl}-1,2,3,6-tetrahydroazepino[4,5-b]indole-5-carboxylate]
9 | 100 to 500 nM | CC(C)OC(=O)C1=CN(C(=O)c2cccc(CN3C[C@@H](C)C[C@H](C)C3)c2)CC(C)(C)c2c1[nH]c1ccccc21 [Example 13, Isopropyl 3-(3-{[(3S,5S)-3,5-dimethylpiperidin-1-yl]methyl}benzoyl)-1,1-dimethyl-1,2,3,6-tetrahydroazepino[4,5-b]indole-5-carboxylate]
10 | 1000 to 10000 nM | CC(C)OC(=O)C1=CN(C(=O)c2cccc(CN3C[C@H](C)C[C@H](C)C3)c2)CC(C)(C)c2c1[nH]c1ccccc21 [Example 14, Isopropyl 3-(3-{[(R3R,5S)-3,5-dimethylpiperidin-1-yl]methyl}benzoyl)-1,1-dimethyl-1,2,3,6-tetrahydroazepino[4,5-b]indole-5-carboxylate]
11 | 100 to 500 nM | CC(C)OC(=O)C1=CN(C(=O)c2cccc(CN3CCSCC3)c2)CC(C)(C)c2c1[nH]c1ccccc21 [Example 15, Isopropyl 1,1-dimethyl-3-[3-(thiomorpholin-4-ylmethyl)benzoyl]-1,2,3,6-tetrahydroazepino[4,5-b]indole-5-carboxylate]
